The structures appear in SMILES notation.

The assay has as its system standard laboratory SEPTTR isolate (SI SEPTTR); Mycosphaerella graminicola; Anamorph: Septoria tritici. As to the kind of experiment: Leaf blotch of wheat fungicidal activity, Type A assay (technical grade in acetone/water with Triton X-100, booth sprayer), standard laboratory isolate. In kind it is in vivo, Mycosphaerella graminicola on wheat plants (variety Yuma). To be noted: Zymoseptoria tritici, 24 h, 1 Day Protectant, wheat seedlings (Yuma), read-out: Disease control, SI SEPTTR Type A Assay (50 ppm) 1DP. As to the method: Evaluation of Fungicidal Activity: Leaf Blotch of Wheat (Mycosphaerella graminicola; Anamorph: Septoria tritici; Bayer code SEPTTR):
For Type A assays, technical grades of the experimental fungicides in Table 4 below were dissolved in acetone, and then mixed with nine volumes of water containing 110 ppm Triton X-100. The fungicide solutions were applied onto wheat seedlings using an automated booth sprayer. For Type B assays, emulsifiable concentrate (EC) formulations of technical grades of experimental fungicides in Table 4 below were prepared at 10% (w/v), and then mixed with 150 volumes of 0.1% Trycol 5941. The fungicide solutions were applied onto wheat seedlings using an automated track sprayer at 200 L/ha. All sprayed plants were allowed to air dry prior to further handling.
Wheat plants (variety Yuma) were grown from seed in a greenhouse in 50% mineral soil/50% soil-less Metro mix until the first leaf was fully emerged, with 7-10 seedlings per pot. Prior to or after application of experimental fungicides, plants were inoculated either with spores of a standard laboratory SEPTTR isolate (SI SEPTTR) or with spores from a SEPTTR field isolate collected from Wellsbourne, England in 2012 (FI SEPTTR). After inoculation, the plants were kept for 3 days at 20° C. in 100% relative humidity (one day in a dark dew chamber followed by two days in a lighted dew chamber). Plants were then transferred to a 20° C. greenhouse for disease development. When disease symptoms were fully expressed on untreated plants, infection levels on treated plants were assessed on a scale of 0 to 100 percent disease severity. Percent disease control was calculated using the ratio of disease severity on treated plants relative to untreated plants.
Consider `CC(C)(C)C(O)(c1cncnc1)c1ccc(-c2ccc(C(F)(F)F)cc2F)cc1F` (stereo not shown) [Compound 31], for which the pest or weed control at 50 ppm fell in the range of 80 to 100%.
As for `CC(C)(C)C(O)(c1ccc(-c2ccc(C(F)(F)F)nc2)cc1)c1cncnc1` (stereo not shown) [Compound 7], the pest or weed control at 50 ppm is 80 to 100%.
With `COc1cc(-c2ccc(OC(F)(F)F)cc2)ccc1C(O)(c1cncnc1)C(C)(C)C` (stereo not shown) [Compound 44] the figure was 80 to 100%; with `CC(C)(C)C(O)(c1ccc(-c2ccc(OCC(F)(F)F)cc2)cc1)c1cccnc1` (stereo not shown) [Compound 57], 80 to 100%.
Next, `COc1ccc(-c2ccc(C(O)(c3cncnc3)C(C)(C)C)cc2)cc1` (stereo not shown) [Compound 13]: 80 to 100%; `Cc1cc(-c2ccc(C3(C#N)CC3)cc2)ccc1C(O)(c1cncnc1)C(C)(C)C` (stereo not shown) [Compound 38]: 80 to 100%.
For the compound `CC(C)(C)C(O)(c1cncnc1)c1ccc(-c2ccccc2)cc1Cl` (stereo not shown) [Compound 27], the pest or weed control at 50 ppm is 80 to 100%.
With `COc1cc(-c2ccc(C3(C#N)CC3)cc2)ccc1C(O)(c1cncnc1)C(C)(C)C` (stereo not shown) [Compound 49] the figure was 80 to 100%; with `COc1cc(-c2ccc(OC(F)F)cc2)ccc1C(O)(c1cncnc1)C(C)(C)C` (stereo not shown) [Compound 45], 80 to 100%; with `Cc1cc(-c2ccc(OC(F)(F)F)cc2)ccc1C(O)(c1cncnc1)C(C)(C)C` (stereo not shown) [Compound 34], 80 to 100%.
As to `CC(C)(C)C(O)(c1ccc(-c2ccccc2)cc1)c1cncnc1` (stereo not shown) [Compound 5], the pest or weed control at 50 ppm is 80 to 100%.
Consider `Cc1cc(-c2ccc(C(C)(C)C#N)cc2)ccc1C(O)(c1cncnc1)C(C)(C)C` (stereo not shown) [Compound 42], for which the pest or weed control at 50 ppm lay in the range of 80 to 100%.
With `CC(C)(C)c1ccc(-c2ccc(C(O)(c3cccnc3)C(C)(C)C)cc2)cc1` (stereo not shown) [Compound 62] the figure was 80 to 100%.
Turning to `CC(C)(C)C(O)(c1ccc(-c2ccc(SC(F)(F)F)cc2)cc1)c1cccnc1` (stereo not shown) [Compound 55], the pest or weed control at 50 ppm lay within 80 to 100%.
With `CC(C)(C)C(O)(c1ccc(-c2ccc(C(F)(F)F)cc2)cc1)c1cncnc1` (stereo not shown) [Compound 6], the pest or weed control at 50 ppm is 80 to 100%.
On to `Cc1cc(-c2ccc(OC(F)F)cc2)ccc1C(O)(c1cncnc1)C(C)(C)C` (stereo not shown) [Compound 36], for which the pest or weed control at 50 ppm was 80 to 100%.
Regarding `Cc1cc(-c2ccc(CC#N)cc2)ccc1C(O)(c1cncnc1)C(C)(C)C` (stereo not shown) [Compound 43], the pest or weed control at 50 ppm fell in the range of 40 to 59%.
Consider `COc1cc(-c2ccc(CC#N)cc2)ccc1C(O)(c1cncnc1)C(C)(C)C` (stereo not shown) [Compound 48], for which the pest or weed control at 50 ppm was in the range of 80 to 100%.
As to `CC(C)(C)c1ccc(-c2ccc(C(O)(c3cncnc3)C(C)(C)C)cc2)cc1` (stereo not shown) [Compound 33], the pest or weed control at 50 ppm lay in the range of 80 to 100%.
With `CC(C)(C)C(O)(c1ccc(-c2ccc(C#N)cc2)cc1)c1cccnc1` (stereo not shown) [Compound 58], the pest or weed control at 50 ppm is 80 to 100%.
With `Cc1cc(-c2ccc(C(C)(C)C)cc2)ccc1C(O)(c1cncnc1)C(C)(C)C` (stereo not shown) [Compound 39] the figure was 80 to 100%; with `CC(C)(C)C(O)(c1ccc(-c2ccc(C3(C#N)CC3)cc2)cc1)c1cccnc1` (stereo not shown) [Compound 60], 80 to 100%.
Next, `CC(C)(C)C(O)(c1ccc(-c2ccc(OC(F)F)cc2)cc1)c1cccnc1` (stereo not shown) [Compound 56]: 80 to 100%; `COc1cc(-c2ccc(OC(F)(F)F)cc2F)ccc1C(O)(c1cncnc1)C(C)(C)C` (stereo not shown) [Compound 53]: 80 to 100%; `CC(C)(C#N)c1ccc(-c2ccc(C(O)(c3cccnc3)C(C)(C)C)cc2)cc1` (stereo not shown) [Compound 61]: 80 to 100%.
As for `Cc1cc(OC(F)(F)F)ccc1-c1ccc(C(O)(c2cccnc2)C(C)(C)C)cc1` (stereo not shown) [Compound 63], the pest or weed control at 50 ppm is 80 to 100%.
With `Cc1cc(-c2ccc(OC(F)(F)F)cc2F)ccc1C(O)(c1cncnc1)C(C)(C)C` (stereo not shown) [Compound 41] the figure was 80 to 100%.
With `COc1cc(-c2ccc(SC(F)(F)F)cc2)ccc1C(O)(c1cncnc1)C(C)(C)C` (stereo not shown) [Compound 46] the figure was 80 to 100%.
